These are literature values, as cited in patent publication US20080015265A1, “Methods of treating obesity using satiety factors” (priority 2006, published 2008).

The conditions of series [1]: species not stated.
For series [2] the following is noted: human subjects; peripheral or intravenous administration.
The conditions of series [3]: for food intake (feeding) / weight gain: rats and/or mice.
For series [4] the following is noted: for food intake: several species including humans.

Read-outs that look alike come from different tables or passages of the source. Where no end group is shown, it is not given here.

Consider `O=C1N[C@@H](Cc2cnc[nH]2)C(=O)N2CCC[C@@H]12` [cyclo-his-pro], for which, in series [1], the food intake entry is “reduce food intake”.
In the case of `CC[C@H](C)[C@H](NC(=O)[C@@H]1CCCN1C(=O)CNC(=O)[C@H](Cc1ccccc1)NC(=O)[C@H](CC(N)=O)NC(=O)[C@H](CC(N)=O)NC(=O)[C@H](CO)NC(=O)[C@H](CO)NC(=O)[C@H](Cc1c[nH]cn1)NC(=O)[C@@H](NC(=O)[C@H](CC(C)C)NC(=O)[C@H](Cc1ccccc1)NC(=O)[C@H](CC(N)=O)NC(=O)[C@H](C)NC(=O)[C@H](CC(C)C)NC(=O)[C@H](CCCNC(=N)N)NC(=O)[C@H](CCC(N)=O)NC(=O)[C@@H](NC(=O)[C@H](C)NC(=O)[C@@H]1CSSC[C@H](NC(=O)[C@@H](N)CCCCN)C(=O)N[C@@H](CC(N)=O)C(=O)N[C@@H]([C@@H](C)O)C(=O)N[C@@H](C)C(=O)N[C@@H]([C@@H](C)O)C(=O)N1)[C@@H](C)O)C(C)C)C(=O)N[C@@H](CC(C)C)C(=O)N1CCC[C@H]1C(=O)N1CCC[C@H]1C(=O)N[C@H](C(=O)N[C@@H](CC(N)=O)C(=O)N[C@H](C(=O)NCC(=O)N[C@@H](CO)C(=O)N[C@@H](CC(N)=O)C(=O)N[C@H](C(=O)N[C@@H](Cc1ccc(O)cc1)C(N)=O)[C@@H](C)O)C(C)C)[C@@H](C)O` [pramlintide, reference compound], in series [1], the “body weight (weight loss / weight gain)” value is “sustained weigh loss” and the food intake result is on record as “decreased food intake”.
In the case of `C=CC1=C(C)c2cc3[nH]c(cc4nc(cc5[nH]c(cc1n2)c(C)c5CCC(=O)O)C(CCC(=O)O)=C4C)c(C)c3C=C` [protoporphyrin], in series [1], the “body weight (weight loss / weight gain)” value was “decrease food intake and body weight”; the food intake result is “decrease food intake”.
As for “Glucagon-like peptide-1 (7-36)-amide (HAEGTFTSDVSSYLEGQAAKEFIAWLVKGR-NH2; UniProt P01275 98-127, looked up) [GLP-1]”, in series [2], the food intake entry is “reduce food intake” and the hunger / appetite result is given as “suppress hunger”.
With “NPW: ligand for orphan G protein-coupled receptors (WYKHVASPRYHTVGRAAGLLMGL; Neuropeptide W-23; UniProt Q8N729 33-55, looked up)”, the food intake entry (animals) was “stimulate food intake”.
For PYY3-36, in series [3], the “food intake (feeding)” value was “inhibits food intake” and the weight gain result is listed as “reduced weigh gain”. Besides, in series [2], the food intake entry is on record as “significant food intake reduction”.
Consider “amylin (KCNTATCATQRLANFLVHSSNNFGAILSSTNVGSNTY; not fully specified (C-terminus, bridges); cysteine pairing not given here; UniProt P10997 34-70, looked up) [37 amino acid peptide released by the β cells of the pancreas]”, for which, in series [1], the “body weight (weight loss / weight gain)” value was “sustained weigh loss” and the food intake entry was “decreased food intake”.
For beacon, for the setting “animals”, the food intake result is recorded as “stimulate food intake”; the weight gain entry is “stimulate food intake and weight gain”.
With “bombesin [bombesin or bombesin-like peptide]”, the food intake result in series [4] is recorded as “Feed suppression”.
For the molecule “corticotropin-releasing hormone (SEEPPISLDLTFHLLREVLEMARAEQLAQQAHSNRKLMEII; ends and bridges not checked; UniProt P06850 154-194, looked up)”, the food intake entry (animals) was “reduce food intake”.
As for dynorphin, the food intake entry (animals) is “stimulate food intake”.
With enterostatin, the dietary fat preference entry in series [3] (mammals, demonstrated in rodent studies) is “reduce dietary fat preference”.
Turning to “galanin (GWTLNSAGYLLGPHAVGNHRSFSDKNGLTS; Galanin; UniProt P22466 33-62, looked up)”, the “food intake (feeding)” value in series [3] was “stimulate food intake”.
In the case of “galanin-like peptide (APAHRGRGGWTLNSAGYLLGPVLHLPQMGDQDGKRETALEILDLWKAIDGLPYSHPPQPS; Galanin-like peptide; UniProt Q9UBC7 25-84, looked up)”, the “food intake (feeding)” value in series [3] is “stimulate food intake”.
Turning to “ghrelin (GSSFLSPEHQRVQQRKESKKPPAKLQPR; ends and bridges not checked; also: octanoyl acylation; UniProt Q9UBU3 24-51, looked up) [28 amino acid acylated peptide produced mainly by the stomach]”, in series [4] (rodents and persons), the body weight result is “increase body weight” and the fat oxidation entry is “reducing fat oxidation”. For the same molecule, the food intake entry in series [4] is on record as “stimulating food intake”.
Consider “growth hormone-releasing hormone (YADAIFTNSYRKVLGQLSARKLLQDIMSRQQGESNQERGARARL; ends and bridges not checked; UniProt P01286 32-75, looked up)”, for which, in series [1], the “body weight (weight loss / weight gain)” value is “stimulate food intake and weight gain”; the food intake result is recorded as “stimulate food intake”.
Take hypocretins/orexins: the appetite entry in series [3] (rats) is reported as “stimulate appetite”. In addition, the “food intake (feeding)” value in series [3] is “stimulate appetite and food intake”.
For the molecule leptin, in series [1], the “body weight (weight loss / weight gain)” value is “decrease food intake and body weigh”; the food intake entry is on record as “decrease food intake”.
With “motilin (FVPIFTYGELQRMQEKERNKGQ; Motilin; UniProt P12872 26-47, looked up) [polypeptide hormone secreted by Mo cells of the small intestine]”, in series [1], the gastrointestinal motility entry is recorded as “increase the gastrointestinal motility”.
As to “neuropeptide B (WYKPAAGHSSYSVGRAAGLLSGLRRSPYA; Neuropeptide B-29; UniProt Q8NG41 25-53, looked up) [ligand for orphan G protein-coupled receptors]”, for the setting “animals”, the food intake result was “stimulate food intake”.
For “neuropeptide K (DADSSIEKQVALLKALYGHGQISHKRHKTDSFVGLM; ends and bridges not checked; UniProt P20366 72-107, looked up)”, the food intake entry (animals) is “inhibit food intake”.
On to neuropeptide Y, for which, for the setting “animals”, the food intake entry was “stimulate food intake”.
Turning to neurotensin, in series [1], the food intake result was “decrease food intake”.
In the case of obestatin, the jejunal contraction result in series [3] (rats) is “inhibited jejunal contraction”. In series [3], the “food intake (feeding)” value is recorded as “suppressed food intake” and the weight gain entry is recorded as “decreased body weigh gain”.
Regarding “oxyntomodulin (HSQGTFTSDYSKYLDSRRAQDFVQWLMNTKRNRNNIA; Oxyntomodulin; UniProt P01275 53-89, looked up) [37 amino acid peptide, product of the proglucagon gene]”, in series [4] (administered to rodents and humans), the energy intake result is reported as “reduce energy intake”.
As for oxytocin, under “animals”, the food intake entry is “increase food intake”.
In the case of prolactin-releasing peptide, the food intake result (animals) is listed as “increase food intake”.
Regarding “somatostatin (AGCKNFFWKTFTSC; ends and bridges not checked; cysteine pairing not given here; UniProt P61278 103-116, looked up)”, the food intake entry (animals) is given as “reduce food intake”.
Take “urocortin (DNPSLSIDLTFHLLRTLLELARTQSQRERAEQNRIIFDSV; ends and bridges not checked; UniProt P55089 83-122, looked up)”: in series [3], the “food intake (feeding)” value is recorded as “reduces feeding”. Also, the drinking entry in series [3] (rats, infused) is “reduces feeding and drinking”.
In the case of “vasopressin (CYFQNCPRG; ends and bridges not checked; cysteine pairing not given here; UniProt P01185 20-28, looked up)”, the food intake entry (animals) was “reduce food intake”.
In the case of β casomorphin, the food intake entry (animals with a high fat diet) is listed as “increase food intake” and the food intake result (animals with a low fat diet) is on record as “decrease food intake”.

B1: ciliary neurotrophic factor (protein, UniProt P26441 1-200, looked up)
Ciliary neurotrophic factor: MAFTEHSPLTPHRRDLCSRSIWLARKIRSDLTALTESYVKHQGLNKNINLDSADGMPVASTDQWSELTEAERLQENLQAYRTFHVLLARLLEDQQVHFTPTEGDFHQAIHTLLLQVAAFAYQIEELMILLEYKIPRNEADGMPINVGDGGLFEKKLWGLKVLQELSQWTVRSIHDLRFISSHQTGIPARGSHYIANNKKM
As to B1, the “body weight (weight loss / weight gain)” value in series [1] is listed as “cause weigh loss”.

B2: cholecystokinin (peptide, UniProt P06307 21-115, looked up)
Cholecystokinin: QPVPPADPAGSGLQRAEEAPRRQLRVSQRTDGESRAHLGALLARYIQQARKAPSGRMSIVKNLQNLDPSHRISDRDYMGWMDFGRRSAEEYEYPS
notes: gut peptide released mainly in response to dietary fat
On to B2, for which, in series [4], the food intake entry is “dose-dependent inhibition of food intake”.

B3: nesfatin (protein, UniProt P80303 25-106, looked up)
Nesfatin-1: VPIDIDKTKVQNIHPVESAKIEPPDTGLYYDEYLKQVIDVLETDKHFREKLQKADIEEIKSGRLSKELDLVSHHVRTKLDEL
modifications: Nesfatin-1
notes: produced by the brain
B3: the food intake entry (animals) is “reduce food intake in a dose-dependent manner”.

B4: apolipoprotein A-IV (protein, UniProt P06727 21-396, looked up)
Apolipoprotein A-IV: EVSADQVATVMWDYFSQLSNNAKEAVEHLQKSELTQQLNALFQDKLGEVNTYAGDLQKKLVPFATELHERLAKDSEKLKEEIGKELEELRARLLPHANEVSQKIGDNLRELQQRLEPYADQLRTQVSTQAEQLRRQLTPYAQRMERVLRENADSLQASLRPHADELKAKIDQNVEELKGRLTPYADEFKVKIDQTVEELRRSLAPYAQDTQEKLNHQLEGLTFQMKKNAEELKARISASAEELRQRLAPLAEDVRGNLRGNTEGLQKSLAELGGHLDQQVEEFRRRVEPYGENFNKALVQQMEQLRQKLGPHAGDVEGHLSFLEKDLRDKVNSFFSTFKEKESQDKTLSLPELEQQQEQQQEQQQEQVQMLAPLES
notes: non-gut peptide satiety factor
Regarding B4, the food intake result (animals) is given as “dose dependent reduction of food intake”.
